Assay results reported in article PMC11477875, “Ecotoxicity and Mutagenicity Assessment of Novel Antifungal Agents VT-1161 and T-2307” (Molecules, 2024).
In brackets after ≈: the same amount, converted by molar mass. Read-outs that look alike come from different tables or passages of the source.

Experiments:
D. magna [1] = conditions: cited from earlier work
D. magna [2] = assay: Literature D. magna toxicity data used for hazard ranking; type: in vivo, Daphnia magna; conditions: for Hazard Ranking: GHS, from literature EC50 D. magna 48 h
Source text: (§1) The hazard ranking of antifungal compounds is crucial for understanding their environmental impact and guiding regulatory decisions. This study utilizes data from existing literature to classify the effective concentrations (EC50) of various antifungal compounds according to the Globally Harmonized System of Classification and Labelling of Chemicals (GHS).
(§2) Furthermore, multiple fungicide compounds were classified according to the Globally Harmonized System of Classification and Labeling of Chemicals (GHS) to compare the hazard ranking of substances currently on the market and the two substances of this study.

Green algae [3] = conditions: cited from earlier work
Daphnia magna = Daphnia magna acute immobilization test (this study); type: in vivo; conditions: for immobility: 50 mg L^−1; for Hazard Ranking: GHS, from EC50 D. magna 48 h, this study
Protocol: The immobilization tests with D. magna were conducted following ISO guidelines using an in-house culture at the Hygiene Department at the UNINA. Organisms under 24 h old were exposed to concentrations of 1.56, 3.12, 6.25, 12.50, 25, and 50 mg L^−1 and to a negative control of freshwater media. Each concentration had four replicates containing five organisms each. The exposure was conducted at a temperature of 20 ± 1 °C and under continuous illumination of approx. 1000 lux. Immobilization was assessed at 24 and 48 h after exposure using a stereomicroscope.
(§3) Data were analyzed with R Studio for Windows (Version 2023.06.0). The effective concentrations causing 50% of the response on the organisms A. fischeri, R. subcapitata, and D. magna were estimated by fitting on dose–response models using the extension package “drc” [49]. For the data analysis of R. subcapitata and A. fischeri tests, the measurements were normalized to the control to estimate an inhibition percentage.

Raphidocelis subcapitata = Raphidocelis subcapitata growth inhibition test (this study); type: cell-based; conditions: for Hazard Ranking: GHS, from EC50 R. subcapitata 72 h, this study
Protocol: The growth inhibition test with R. subcapitata was conducted following ISO guidelines using an in-house culture at the Hygiene Department at the UNINA. Algal cultures were incubated in Erlenmeyer flasks at 20 ± 1 °C on a shaker at 100 rpm and under continuous daylight fluorescent tube illumination of approximately 6300 lux with […]. The initial inoculum concentration was set at 10^4 cells mL^−1, exposed to the concentrations of 1.56, 3.12, 6.25, 12.50, 25, and 50 mg L^−1 and to a negative control of freshwater media. Six replicates were set up for both the control samples and the treatments and were maintained under the same conditions as the algal culture for 72 h.
as §3

Aliivibrio fischeri = Aliivibrio fischeri luminescence inhibition test (this study); type: cell-based
Protocol: The luminescence inhibition test was performed on Allivibrio fischeri (strain NRRL-B-11177), purchased from WaterTox STD (ECOtest S.L., Valencia, Spain), and performed according to [46]. The luminescence was measured using a Microtox luminometer Model 500, (AZUR Environmental, Carlsbad, CA, USA) equipped with a cell incubated at a constant temperature of 15 ± 1 °C, and readings were taken after 30 min of exposure at a wavelength of 490 nm. The Osmotic Adjustment Solution was added to the media to adapt the marine bacterium to freshwater. […] Data were analyzed with R Studio for Windows (Version 2023.06.0). The effective concentrations causing 50% of the response on the organisms A. fischeri, R. subcapitata, and D. magna were estimated by fitting on dose–response models using the extension package “drc” [49]. For the data analysis of R. subcapitata and A. fischeri tests, the measurements were normalized to the control to estimate an inhibition percentage.

[4] = system: Salmonella typhimurium strain TA100; assay: Salmonella typhimurium mutagenicity assay; type: cell-based; conditions: for mutagenicity (result in words): TA100, 1.56 and 50 mg L^−1; for mutagenicity ratio: TA100, both concentrations 1.56 and 50 mg L^−1, mutagenic if ratio 2 or greater
Protocol: The mutagenicity in Salmonella typhimurium strain TA100 was assessed by observing the potential mutations that would allow the bacteria to grow without needing histidine (his-), following the protocol. For the assay, a kit obtained from ECOTOX LDS (Milan, Italy) was used to perform the test. Two exposure concentrations of 1.56 and 50 mg L^−1 of each compound were used and bromocresol purple was added as a pH indicator. Distilled water served as the negative control and sodium azide as the positive control for TA100 without S9 ([…]).
The plates were incubated at 37 °C for 3 to 5 days and sealed in hermetic plastic bags to avoid contamination. […] Wells that remained purple indicated a negative result (non-mutagenic compound).
For the test organism S. typhimurium, results were expressed as the mutagenicity ratio. This was calculated by dividing the number of revertants (his+) in the treatments by the number of naturally occurring (negative control). The treatments were considered mutagenic if the mutagenicity ratio was 2 or greater.

[5] = system: A. fischeri, R. subcapitata, and D. magna; assay: Summary over the species tested (A. fischeri, R. subcapitata, D. magna) and GHS classification
Protocol: as §3, §2

R. subcapitata [6] = assay: Literature R. subcapitata toxicity data used for hazard ranking; type: cell-based, Raphidocelis subcapitata; conditions: GHS, from literature EC50 R. subcapitata 72 h
Source text: as §1, §2

Green algae [7] = assay: Literature green algae toxicity data used for hazard ranking; type: cell-based; conditions: GHS
Source text: as §1, §2

R. subcapitata [8] = conditions: cited from earlier work

Question: Which EC50 (D. magna [1]; exposure time not printed ref 30) does the source give for `CC(C)(C)C(=O)C(Oc1ccc(Cl)cc1)n1ccnc1` (centres unmarked) [climbazole] here?
Answer: 15.99 µg/mL (≈ 54.6 µM)

Question: What does the source list for `OC(Cn1cncn1)(Cn1cncn1)c1ccc(F)cc1F` [Fluconazole]?
Answer: GHS hazard category (in words) (D. magna [2]; from literature EC50 D. magna, EC50 > 100 mg L^−1): not harmful; EC50 (D. magna [1]; 48 h ref 30): 0.002766 µg/mL (≈ 0.00903 µM); EC50 (D. magna [1]; 48 h ref 37): 530 µg/mL (≈ 1730 µM); EC50 (Green algae [3]; 96 h ref 30): 0.001162 µg/mL (≈ 0.00379 µM); EC50 (Green algae [3]; 96 h ref 37): 55.4 µg/mL (≈ 181 µM)

Question: For `O[C@@](Cn1cnnn1)(c1ccc(F)cc1F)C(F)(F)c1ccc(-c2ccc(OCC(F)(F)F)cc2)cn1` [VT-1161, oteseconazole], which immobility (Daphnia magna; D. magna, 48 h) is on record?
Answer: 100%

Question: What about the EC50 (Daphnia magna; Daphnia magna, read-out: EC50 (effective concentration causing 50% of immobility), D. magna, 48 h) of the same molecule?
Answer: 20.9 µg/mL (≈ 39.7 µM)

Question: And the “Hazard Ranking” value (Daphnia magna)?
Answer: ** (Harmful: (<10 mg L^−1 ≤ 100 mg L^−1))

Question: What about the “Hazard Ranking” value (Raphidocelis subcapitata) of the same molecule?
Answer: ** (Harmful: (<10 mg L^−1 ≤ 100 mg L^−1))

Question: And the EC50 (Raphidocelis subcapitata; Raphidocelis subcapitata, read-out: EC50 (effective concentration causing 50% growth inhibition), R. subcapitata, 72 h)?
Answer: 27.9 µg/mL (≈ 52.9 µM)

Question: What about the inhibition at 50 µg/mL (Raphidocelis subcapitata; Raphidocelis subcapitata, R. subcapitata, 72 h, 50 mg L^−1) of the same molecule?
Answer: ~65%

Question: And the EC50 (Aliivibrio fischeri; Aliivibrio fischeri, 0.5 h, read-out: EC50 (effective concentration causing 50% luminescence inhibition), A. fischeri, 30 min)?
Answer: 22.4 µg/mL (≈ 42.5 µM)

Question: And the inhibition at 50 µg/mL (Aliivibrio fischeri; Aliivibrio fischeri, 0.5 h, A. fischeri, 30 min, 50 mg L^−1)?
Answer: ~63%

Question: And the “Hazard Ranking” value (Aliivibrio fischeri; GHS, from EC50 A. fischeri 30 min, this study)?
Answer: ** (Harmful: (<10 mg L^−1 ≤ 100 mg L^−1))

Question: And the “mutagenicity (result in words)” value [4]?
Answer: non-positive mutagenicity

Question: What about the mutagenicity ratio [4] of the same molecule?
Answer: < 2

Question: What about the EC50 ([5]; A. fischeri, R. subcapitata, D. magna, read-out: EC50 values, range over the species tested) of the same molecule?
Answer: 20.9 to 27.9 µg/mL (≈ 39.7 to 52.9 µM)

Question: And the “GHS classification (in words)” value ([5]; EC50 values between 10 mg L^−1 and 100 mg L^−1)?
Answer: harmful

Question: With `N=C(N)c1ccc(OCCCC2CCN(CCCOc3ccc(C(=N)N)cc3)CC2)cc1` [T-2307] as the molecule, how does the “EC50 (effective concentration causing 50% of immobility)” value (Daphnia magna; D. magna, 48 h) read?
Answer: 17.93 µg/mL

Question: What about the immobility (Daphnia magna; D. magna, 48 h) of the same molecule?
Answer: 90%

Question: And the “Hazard Ranking” value (Daphnia magna)?
Answer: ** (Harmful: (<10 mg L^−1 ≤ 100 mg L^−1))

Question: And the “Hazard Ranking” value (Raphidocelis subcapitata)?
Answer: ** (Harmful: (<10 mg L^−1 ≤ 100 mg L^−1))

Question: What about the “EC50 (effective concentration causing 50% growth inhibition)” value (Raphidocelis subcapitata; R. subcapitata, 72 h) of the same molecule?
Answer: 14.34 µg/mL (≈ 32.8 µM)

Question: What about the growth inhibition (Raphidocelis subcapitata; R. subcapitata, 72 h, 50 mg L^−1) of the same molecule?
Answer: around 82%

Question: And the “EC50 (effective concentration causing 50% luminescence inhibition)” value (Aliivibrio fischeri; A. fischeri, 30 min)?
Answer: 22.58 µg/mL (≈ 51.6 µM)

Question: And the luminescence inhibition (Aliivibrio fischeri; A. fischeri, 30 min, 50 mg L^−1)?
Answer: ~75%

Question: And the “mutagenicity (result in words)” value [4]?
Answer: non-positive mutagenicity

Question: And the mutagenicity ratio [4]?
Answer: < 2

Question: Which “Hazard Ranking” value (D. magna [2]) does the source give for `CC(=O)N1CCN(c2ccc(OCC3COC(Cn4ccnc4)(c4ccc(Cl)cc4Cl)O3)cc2)CC1` (centres unmarked) [Ketoconazole] here?
Answer: *** (Toxic (<1 mg L^−1 ≤ 10 mg L^−1))

Question: And the “Hazard Ranking” value (R. subcapitata [6])?
Answer: **** (Very toxic (≤1 mg L^−1))

Question: And the “Hazard Ranking” value (Green algae [7]; from literature EC50 green algae 72 h)?
Answer: **** (Very toxic (≤1 mg L^−1))

Question: What about the “Hazard Ranking” value (Green algae [7]; from literature EC50 green algae 96 h) of the same molecule?
Answer: *** (Toxic (<1 mg L^−1 ≤ 10 mg L^−1))

Question: And the EC50 (D. magna [1]; 48 h ref 30)?
Answer: 2.39 µg/mL (≈ 4.5 µM)

Question: What about the EC50 (D. magna [1]; 48 h ref 34) of the same molecule?
Answer: 6.57 µg/mL (≈ 12.4 µM)

Question: What about the EC50 (D. magna [1]; 48 h ref 38) of the same molecule?
Answer: 6.57 µg/mL (≈ 12.4 µM)

Question: What about the EC50 (D. magna [1]; 48 h ref 39, listed as ketoconazole) of the same molecule?
Answer: 1.51 µg/mL (≈ 2.84 µM)

Question: And the EC50 (D. magna [1]; 48 h ref 39)?
Answer: 1.5 µg/mL (≈ 2.82 µM)

Question: What about the EC50 (R. subcapitata [8]; 72 h ref 36) of the same molecule?
Answer: 0.28 µg/mL (≈ 0.527 µM)

Question: And the EC50 (R. subcapitata [8]; 72 h ref 40)?
Answer: 0.3 µg/mL (≈ 0.565 µM)

Question: And the EC50 (Green algae [3]; 72 h ref 38)?
Answer: 0.28 µg/mL (≈ 0.527 µM)

Question: What about the EC50 (Green algae [3]; 96 h ref 30) of the same molecule?
Answer: 4.36 µg/mL (≈ 8.2 µM)

Question: For `CC(C)(C)C(O)(CCc1ccc(Cl)cc1)Cn1cncn1` (centres unmarked) [Tebuconazole], which “Hazard Ranking” value (D. magna [2]) is on record?
Answer: *** (Toxic (<1 mg L^−1 ≤ 10 mg L^−1))

Question: And the “Hazard Ranking” value (R. subcapitata [6])?
Answer: *** (Toxic (<1 mg L^−1 ≤ 10 mg L^−1))

Question: What about the EC50 (D. magna [1]; 48 h ref 41) of the same molecule?
Answer: 2.37 µg/mL (≈ 7.7 µM)

Question: What about the EC50 (D. magna [1]; 48 h ref 42) of the same molecule?
Answer: 6.75 µg/mL (≈ 21.9 µM)

Question: What about the EC50 (R. subcapitata [8]; 72 h ref 42) of the same molecule?
Answer: 2.09 µg/mL (≈ 6.79 µM)
